# According to US20110052556A1, “PHARMACEUTICAL COMPOSITION COMPRISING RACETAM AND CARNITINE AND PROCESS FOR ITS PREPARATION” (Biolab Sanus Farmaceutical Ltda, priority 2008, published 2011):
# Tested on: mitochondria isolated from liver of rat
# Test: Protection against mitochondrial swelling induced by statins
# Assay type: biochemical
# Experimental: Mitochondria were isolated from adult rat liver (MFR) using the technique of differential centrifugation, according to […] and HOGEBOOM (1951), after a fast of 12 h. The liver, removed after death of the animal by cerebral concussion, was wash in a 250 mM saccharose solution containing buffer 10 mM HEPES pH 7.2 and 0.5 mM EGTA, and chopped with a scissors and homogenized in a Potter-Elvehjem homogeneizer. The material was centrifuged at 2500×g for 10 minutes. The resulting supernatant was centrifuged for 10 minutes at 8000×g. The supernatant was discarded and the sediment resuspended in 250 mM saccharose, 5 mM HEPES pH 7.2, 0.3 mM EGTA, and centrifuged as the previous step. […]
# Mitochondrial swelling was calculated based on the decrease in tubidity of a mitochondrial suspension measured at 520 nm in a Hitachi spectrometer model U-3000 for a time period between 0 and 800 seconds.
# This procedure of evaluation of mitochondria modification is based on fact that the mitochondria suspensions are turbid and scatter incident light. […] A spectrofotometric measurement of the absorbance reduction at 540 nm (Ca^2+-dependent NAD(P)^+-induced alterations in membrane permeability of the mitochondria. Integration of Mitochondrial Function, Ed. J. Lemasters, Plenum, New York, pp. 535-542) is made in a spectrophotometer connected to a potentiometric recorder. […]
SMILES,"protection against mitochondria swelling induced by Simvastatin (MFR 0.5 mg/ml, Piracar 0.25/0.65 μg/ml, CoQ 5 μg/ml, FIG. 5)","smallest dose that presented some protective effect on mitochondrial swelling induced by statins (swelling induced by Simvastatin, Pravastatin and Lovastatin) [µg/mL]"
"COC1=C(OC)C(=O)C(C/C=C(\C)CC/C=C(\C)CC/C=C(\C)CC/C=C(\C)CC/C=C(\C)CC/C=C(\C)CC/C=C(\C)CC/C=C(\C)CC/C=C(\C)CCC=C(C)C)=C(C)C1=O [coenzyme Q10, 2,3,dimethoxyl-5-methyl-6-decaprenil-1,4-benzoquinone]",effect of the addition of coenzyme Q10 in the protection against mitochondria swelling,–
C[N+](C)(C)C[C@H](O)CC(=O)[O-] [L-carnitine],–,0.5
